Test results taken from US6410594B1, “Substituted cyclopentane compounds useful as neuraminidase inhibitors” (Biocryst Pharmaceuticals, Inc., priority 1996, dated 2002).

Legend:
[1] = target: H1N9 Influenza Neuraminidase (Influenza A virus, UniProt P03472); test: biochemical; design: species or system influenza virus (H1N9 strain); details: 10 min at 37° C.; read-out: Inhibition of H1N9 Influenza Neuraminidase IC50
Chain of H1N9 Influenza Neuraminidase (P03472 83-470 limits assumed): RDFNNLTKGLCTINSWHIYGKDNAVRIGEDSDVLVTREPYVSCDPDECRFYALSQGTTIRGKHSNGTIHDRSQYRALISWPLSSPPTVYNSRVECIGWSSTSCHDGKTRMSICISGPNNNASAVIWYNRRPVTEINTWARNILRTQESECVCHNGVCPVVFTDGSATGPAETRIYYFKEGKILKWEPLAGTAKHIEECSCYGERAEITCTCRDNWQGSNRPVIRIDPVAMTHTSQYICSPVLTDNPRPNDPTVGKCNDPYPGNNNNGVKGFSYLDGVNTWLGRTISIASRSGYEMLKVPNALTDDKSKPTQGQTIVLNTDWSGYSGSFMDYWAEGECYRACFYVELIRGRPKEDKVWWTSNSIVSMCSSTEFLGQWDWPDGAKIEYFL

Row | Structure (SMILES) | melting point | IC50 [1]
1 | CC(=O)NC(CO)[C@H]1CC(C(=O)O)C[C@@H]1NC(=N)N (single isomer, unassigned; isomer a) [Example 6, 4β-{[(Amino)(imino)methyl]amino}-3α-[(2-hydroxy-1-methylcarbonylamino)ethyl]-1-cyclo-pentancarboxylic acid (isomer A at C-6)] | 121 to 122 °C | 90 µM
2 | CON(C)C(=O)C(NC(C)=O)[C@H]1C[C@](O)(C(=O)O)C[C@@H]1NC(=N)N (some centres unmarked) [Example 19, c-3-{[(Amino)(imino)methyl]amino}-t-1-hydroxy-t-4{(methylcarbonylamino){[(methyl)-(methoxy)amino]carbonyl}methyl}cyclopentan-r-carboxylic acid trifluoroacetic acid (1:1)] | 160 to 216 °C | 16 µM
3 | CCCN(CCC)C(=O)C(NC(C)=O)[C@H]1C[C@@](O)(C(=O)O)C[C@@H]1N=C(N)N (some centres unmarked) [Example 23, t-3-{[(Amino)(imino)methyl]amino}-c-4-[(di-n-propylaminocarbonyl)(methylcarbonylamino)-methyl]-t-hydroxycyclpentan-r-carboxylic acid trifluoroacetic acid (4:5)] |  | 0.47 µM
